Source: patent US10765687B2, “Methods and compounds to inhibit enveloped virus release” (Northwestern University, priority 2012, dated 2020)
Values joined by “and” are separate entries in the source; they are usually repeats but may differ in a detail not shown here. Equal entries are not always repeated. Where two headings read alike, the source gives them in different places.

Experiments:
[1] = biological target: T1, WWP2 (SEQ ID NO:24) (Homo sapiens, UniProt O00308); test: Epic label-free binding assay of compounds to immobilized WWP2; conditions: Epic label-free binding, WWP2 as target; read-out: Kd
T1 construct: poly-His (pET28b leader with thrombin site) (N, cleaved yes); made in house; host or cells: E. coli BL21 DE3
T1 sequence (O00308 with tags, fused parts or gaps): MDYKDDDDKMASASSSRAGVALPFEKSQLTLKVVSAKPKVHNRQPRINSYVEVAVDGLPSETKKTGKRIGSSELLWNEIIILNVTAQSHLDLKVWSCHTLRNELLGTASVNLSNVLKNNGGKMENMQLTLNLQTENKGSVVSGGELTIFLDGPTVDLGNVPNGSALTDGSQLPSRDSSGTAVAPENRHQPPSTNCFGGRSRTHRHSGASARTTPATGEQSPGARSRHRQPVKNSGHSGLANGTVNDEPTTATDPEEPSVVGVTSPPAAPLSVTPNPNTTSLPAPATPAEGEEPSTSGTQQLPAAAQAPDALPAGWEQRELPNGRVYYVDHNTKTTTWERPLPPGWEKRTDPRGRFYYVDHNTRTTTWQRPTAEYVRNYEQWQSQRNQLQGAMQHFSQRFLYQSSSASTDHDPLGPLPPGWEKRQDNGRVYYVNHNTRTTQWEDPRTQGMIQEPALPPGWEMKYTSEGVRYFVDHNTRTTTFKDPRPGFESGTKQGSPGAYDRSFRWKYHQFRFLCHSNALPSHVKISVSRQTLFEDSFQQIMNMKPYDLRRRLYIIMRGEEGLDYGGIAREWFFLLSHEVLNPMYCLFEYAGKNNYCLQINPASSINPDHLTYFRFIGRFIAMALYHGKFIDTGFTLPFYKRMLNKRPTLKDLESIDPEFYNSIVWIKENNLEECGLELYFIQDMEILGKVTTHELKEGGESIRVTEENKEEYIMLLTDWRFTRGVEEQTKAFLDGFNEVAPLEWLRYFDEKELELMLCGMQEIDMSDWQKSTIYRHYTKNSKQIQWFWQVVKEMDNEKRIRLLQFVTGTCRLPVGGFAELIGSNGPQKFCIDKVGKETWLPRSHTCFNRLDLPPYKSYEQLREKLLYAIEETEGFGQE
Description: Another preferred embodiment of an in vitro screening method is depicted in FIG. 3. In this method, the ability of the candidate compound 204 to directly interact with the cellular ESCRT-linked component protein (for example, Nedd4 family of polypeptides [for example, WWP1 (SEQ ID NO:29), WWP2 (SEQ ID NO:24), Nedd4 L, among others]) or TGS101 is evaluated. According to this embodiment, a cellular ESCRT component protein 202 is preferably immobilized to a substrate 201 (for example, a microtiter plate) via a linking group 203 (for example, an amine group). The substrate preferably includes an optional reference area that provides a control to prevent non-specific interactions with non-mobilized ESCRT complex protein 202 with substrate 201. The substrate 201 is washed and irradiated with broadband light so that a baseline refractive index is measured. Test compound 204 is added to the system to permit its binding to the immobilized ESCRT component protein 202 to form a resultant associative complex 205. The substrate 201 is irradiated with broadband light again to detect a change in the wavelength of the reflected light.
High sensitivity biochemical plates (PerkinElmer Cat. No. 6057468) are used in WWP2 (SEQ ID NO:24) binding assay to maximize protein immobilization. […] Because compound stocks are in DMSO that affects the Epic label-free readout, the compound plates were prepared by Echo550 acoustic dispenser to keep DMSO content balanced for all wells. […]
The binding of compounds to WWP2 (SEQ ID NO:24) was measured on the EnSpire label-free plate reader. After 25 minutes of thermal equilibration, a baseline reading was taken on the label-free plates with protein immobilized in assay buffer. […] The final reading was taken after 25 min of thermal equilibration and over a period of 60 minutes. The label-free responses were measured as shifts in reflected wavelength and were expressed in picometers (pm). Results were analyzed using the EnSpire label-free user interface software. […]

[2] = tested on: HIV-1; test: Cell-based inhibition assay in transfected COS-1 cells, ELISA p24 capture assay of tissue culture media; conditions: K21 100 μM, N20 20 μM, 24-hr treatment
Description: COS-1 cells were seeded on twelve-well plates and grown in 1 ml of DMEM with 10% fbs and 1% Penicillin/Streptomycin. The following day, well were confluency was ˜60% were selected for co-transfection with an NL4-3 derived construct (pdeltaEnv) and pIIIEnv for expression of HIV-1 virus-encoded proteins. Inhibitor treatment was done on two sets of transfected cells: one, at 5 hr post-transfection and the other, at 24 hours post-transfection. In each case, the tissue culture media was removed and replaced with treatment Nedd4 inhibitor (100 μM final concentration for K21 and 20 μM final concentration for N20) or DMSO control (1% final concentration) in DMEM with 10% FBS, 1% Penicillin/Streptomycin, 5 mM MgCl2, and 0.5 mM CaCl2. After a 24-hr treatment period, the tissue culture media was collected, cleared of debris by running through a 0.45 um syringe filter and analyzed for amount of virus particles by Elisa p24 capture assay.
At 100 μM, K21 was inhibitory to virus particle release. […] This was true whether the inhibitor was added at 5 hrs post-transfection or at 24 hrs post transfection. At 20 μM, N20 was also exerted an inhibitory effect on virus particle release but it was different from that of K21.

[3] = tested on: COS-1 cells; conditions: K21 100 μM, N20 20 μM; for Cytotoxicity, average of the independent experiments: average in parentheses, DMSO 21%; for Cytotoxicity (blue cells/total cells x 100): single count, DMSO 24%, 18%
Description: The standard trypan blue assay, where dead cells are blue when visualized under a light microscope, was used to determine the percent of dead cells in the culture. Briefly, cells from a well of DMSO-treated, K21-treated and N20-treated samples were dislodged from the well with a stream of 1 ml PBS, collected, pelleted at 200 rpm for 2 min, and suspended in 300 μl trypsin-EDTA, incubated at 37° C. for 30 min. A diluted cell suspension was prepared by mixing 200 μl of the trypsin-treated cell suspension and 800 μl of PBS was used for the assay. For the assay itself: from the 1 ml of diluted cell suspension, 50 μl was taken an placed on paraffin and to this was mixed in 50 μl of 0.4% Trypan Blue dye in PBS, after exactly 2 minutes later, the mixture was loaded on a hematocytometer. The hematocytometer was placed on the light microscope stage and a blue cell count and an all cells count (blue and not blue cells) obtained. Two 50 μl aliquots were counted per sample.

[4] = tested on: HIV-1; test: HIV-1 release from T-cells in culture, HIV-1 CA protein in media by ELISA; conditions: T cells contacted with compound then infected with HIV-1
Description: These compounds were further evaluated as antiviral inhibitors of virus budding and release using the methods disclosed herein.

[5] = inhibitor added 5 hrs post-transfection
[6] = inhibitor added 24 hrs post-transfection

Cl.NC(CO)C(=O)NNCc1ccc(O)c(O)c1O (racemic) [Benserazide Hydrochloride, (RS)-2-amino-3-hydroxy-N′-(2,3,4-trihydroxybenzyl) propanehydrazide hydrochloride]
Kd [1]: 7.9 µM
Amount of virus particle detected in tissue culture media [2, 5]: reduction in the amount of virus particle detected
Amount of virus particle detected in tissue culture media [2, 6]: reduction in the amount of virus particle detected
Cytotoxicity, average of the independent experiments [3]: (31%)
Cytotoxicity (blue cells/total cells x 100) ([3]; listed as K21, hydrochloride): 34% and 28%
HIV-1 particle release (in words) [4]: significant reduction in HIV-1 particle release

CN(C)[C@@H]1C(O)=C(C(N)=O)C(=O)[C@@]2(O)C(=O)C3=C(O)c4c(O)cccc4[C@@](C)(O)[C@H]3[C@H](O)[C@@H]12 [Oxytetracycline, (4S,4aR,5S,5aR,6S,12aS)-4-(dimethylamino)-3,5,6,10,11,12a-hexahydroxy-6-methyl-1,12-dioxo-1,4,4a,5,5a,6,12,12a-octahydrotetracene-2-carboxamide]
Kd [1]: 10.6 µM
Amount of virus particle detected in tissue culture media [2, 5]: reduction in the amount of virus particle detected
Amount of virus particle detected in tissue culture media [2, 6]: reduction was not seen
Cytotoxicity, average of the independent experiments [3]: (32%)
Cytotoxicity (blue cells/total cells x 100) ([3]; listed as N20): 29% and 35%
HIV-1 particle release (in words) [4]: significant reduction in HIV-1 particle release
